Measurements reported in PubChem BioAssay AID330 (DTP/NCI, 2004).
“And” between values parts separate entries of the source, which are not always exact repeats. Identical values can stand only once. Toxic doses and inconclusive results are not listed. Peptide text beside a SMILES is read from it.

Test system: P388 leukemia ip, CD2F1 mice, survival T/C
Experiment: NCI In Vivo Anticancer Drug Screen. Data for tumor model P388 Leukemia (intraperitoneal) in CD2F1 (CDF1) mice
Settings: endpoint: median survival time, higher = longer survival
Summary of the method: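 Mice carrying the transplanted tumor received test compound or vehicle. Survival was recorded in each group, and the value is the treated-group measurement divided by that of the vehicle-treated control group.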

[1] = dose: 60.0 mg/kg/injection, schedule: Q01DX005 (ip), vehicle: saline with Tween-80
[2] = dose: 120.0 mg/kg/injection, schedule: Q01DX005 (ip), vehicle: saline with Tween-80
[3] = dose: 12.5 mg/kg/injection, schedule: Q01DX009 (ip), vehicle: saline with Tween-80
[4] = dose: 25.0 mg/kg/injection, schedule: Q01DX009 (ip), vehicle: saline with Tween-80
[5] = dose: 50.0 mg/kg/injection, schedule: Q01DX009 (ip), vehicle: saline with Tween-80
[6] = dose: 100.0 mg/kg/injection, schedule: Q04DX002 (ip), vehicle: saline with Tween-80
[7] = dose: 200.0 mg/kg/injection, schedule: Q04DX002 (ip), vehicle: saline with Tween-80
[8] = dose: 400.0 mg/kg/injection, schedule: Q04DX002 (ip), vehicle: saline with Tween-80
[9] = dose: 6.25 mg/kg/injection, schedule: Q01DX009 (ip), vehicle: saline with Tween-80
[10] = dose: 25.0 mg/kg/injection, schedule: Q01DX005 (ip), vehicle: saline with Tween-80
[11] = dose: 50.0 mg/kg/injection, schedule: Q01DX005 (ip), vehicle: saline with Tween-80
[12] = dose: 100.0 mg/kg/injection, schedule: Q01DX005 (ip), vehicle: saline with Tween-80
[13] = dose: 50.0 mg/kg/injection, schedule: Q01DX005 (ip), vehicle: Klucel (hydroxypropylcellulose) (HPC)
[14] = dose: 50.0 mg/kg/injection, schedule: Q01DX009 (ip), vehicle: saline
[15] = dose: 100.0 mg/kg/injection, schedule: Q01DX009 (ip), vehicle: saline
[16] = dose: 200.0 mg/kg/injection, schedule: Q01DX009 (ip), vehicle: saline
[17] = dose: 100.0 mg/kg/injection, schedule: Q01DX009 (ip), vehicle: saline with Tween-80

Cc1cc(Nc2ccc3c(c2)OCO3)c2cc(C3CCCCC3)ccc2n1
T/C [1]: 95 % of control
T/C [2]: 91 % of control

CCCC(C#N)OC(=O)c1ccccc1 (centres undefined)
T/C [3]: 104 % of control
T/C [4]: 100 % of control
T/C [5]: 104 % of control

CCC(C)(S)CN (centres undefined)
T/C (dose: 100.0 mg/kg/injection, schedule: Q01DX001 (ip), vehicle: saline): 90 % of control
T/C (dose: 200.0 mg/kg/injection, schedule: Q01DX001 (ip), vehicle: saline): 90 % of control
T/C (dose: 400.0 mg/kg/injection, schedule: Q01DX001 (ip), vehicle: saline): 92 % of control

Cn1c2ccccc2c2nnc(N/N=C/c3ccncc3)nc21
T/C [6]: 88 % of control
T/C [7]: 88 % of control
T/C [8]: 99 % of control and 100 % of control

COc1cc(-c2ccc(O)cc2)c(OC)c(O)c1-c1ccc(O)cc1
T/C (dose: 0.15 mg/kg/injection, schedule: Q01DX009 (ip), vehicle: saline): 90 % of control
T/C (dose: 0.3 mg/kg/injection, schedule: Q01DX009 (ip), vehicle: saline): 90 % of control
T/C (dose: 0.6 mg/kg/injection, schedule: Q01DX009 (ip), vehicle: saline): 107 % of control
T/C (dose: 1.2 mg/kg/injection, schedule: Q01DX009 (ip), vehicle: saline): 89 % of control

CCCCCCOc1cc(N)ccc1C(=O)O
T/C [6]: 98 % of control
T/C [7]: 100 % of control
T/C [8]: 92 % of control

CCCCCCCCCCCCN1CCS(=O)(=O)CC1
T/C (dose: 25.0 mg/kg/injection, schedule: Q01DX009 (ip), vehicle: Klucel (hydroxypropylcellulose) (HPC)): 112 % of control
T/C (dose: 50.0 mg/kg/injection, schedule: Q01DX009 (ip), vehicle: Klucel (hydroxypropylcellulose) (HPC)): 95 % of control
T/C (dose: 100.0 mg/kg/injection, schedule: Q01DX009 (ip), vehicle: Klucel (hydroxypropylcellulose) (HPC)): 118 % of control
T/C (dose: 200.0 mg/kg/injection, schedule: Q01DX009 (ip), vehicle: Klucel (hydroxypropylcellulose) (HPC)): 101 % of control

O=S(=O)(Nc1cc(C(F)(F)F)ccc1Cl)c1ccc(F)cc1
T/C [1]: 104 % of control
T/C [2]: 96 % of control
T/C (dose: 240.0 mg/kg/injection, schedule: Q01DX005 (ip), vehicle: saline with Tween-80): 100 % of control

CN(C)CCCN1c2ccccc2Sc2ccccc21
T/C (dose: 18.75 mg/kg/injection, schedule: Q01DX009 (ip), vehicle: saline with Tween-80): 111 % of control
T/C (dose: 18.75 mg/kg/injection, schedule: Q01DX009 (ip), vehicle: saline): 112 % of control
T/C (dose: 37.5 mg/kg/injection, schedule: Q01DX009 (ip), vehicle: saline with Tween-80): 123 % of control
T/C (dose: 37.5 mg/kg/injection, schedule: Q01DX009 (ip), vehicle: saline): 109 % of control

C/C(=N\NC(=S)N1CCCCC1)c1ccccn1
T/C [9]: 98 % of control
T/C [3]: 100 % of control

COc1ccc(SSc2ccc(OC)n[n+]2[O-])[n+]([O-])n1
T/C (dose: 10.0 mg/kg/injection, schedule: Q01DX001 (ip), vehicle: Klucel (hydroxypropylcellulose) (HPC)): 103 % of control
T/C (dose: 200.0 mg/kg/injection, schedule: Q01DX001 (ip), vehicle: Klucel (hydroxypropylcellulose) (HPC)): 111 % of control

CN=C(N)N/N=C(C)/C(C)=C/c1ccccc1
T/C (dose: 25.0 mg/kg/injection, schedule: Q04DX002 (ip), vehicle: saline with Tween-80): 104 % of control

OCC1CCCN1 (centres undefined)
T/C (dose: 100.0 mg/kg/injection, schedule: Q04DX002 (ip), vehicle: saline): 102 % of control
T/C (dose: 200.0 mg/kg/injection, schedule: Q04DX002 (ip), vehicle: saline): 96 % of control

O=C1C=CC2C=CC1C=C2
T/C [10]: 116 % of control
T/C [11]: 104 % of control
T/C [1]: 118 % of control
T/C [12]: 122 % of control

CP12(OC(C(F)(F)F)(C(F)(F)F)c3ccccc31)OC(C(F)(F)F)(C(F)(F)F)c1ccccc12
T/C (dose: 100.0 mg/kg/injection, schedule: Q04DX002 (ip), vehicle: Klucel (hydroxypropylcellulose) (HPC)): 100 % of control
T/C (dose: 200.0 mg/kg/injection, schedule: Q04DX002 (ip), vehicle: Klucel (hydroxypropylcellulose) (HPC)): 101 % of control
T/C (dose: 400.0 mg/kg/injection, schedule: Q04DX002 (ip), vehicle: Klucel (hydroxypropylcellulose) (HPC)): 96 % of control

CCOC(=O)C(=CNc1cc(OC(C)=O)ccc1C)C(=O)OCC
T/C [13]: 110 % of control
T/C (dose: 100.0 mg/kg/injection, schedule: Q01DX005 (ip), vehicle: Klucel (hydroxypropylcellulose) (HPC)): 100 % of control
T/C (dose: 200.0 mg/kg/injection, schedule: Q01DX005 (ip), vehicle: Klucel (hydroxypropylcellulose) (HPC)): 96 % of control

CCCCCCCCCCCCn1c2nc(=O)[nH]c(=O)c-2nc2ccccc21
T/C (dose: 3.12 mg/kg/injection, schedule: Q01DX005 (ip), vehicle: saline with Tween-80): 97 % of control
T/C (dose: 6.25 mg/kg/injection, schedule: Q01DX005 (ip), vehicle: saline with Tween-80): 97 % of control
T/C (dose: 12.5 mg/kg/injection, schedule: Q01DX005 (ip), vehicle: saline with Tween-80): 90 % of control
T/C [12]: 87 % of control
T/C (dose: 200.0 mg/kg/injection, schedule: Q01DX005 (ip), vehicle: saline with Tween-80): 91 % of control

N=c1nc(N)nc2n1N=C(c1ccc(Cl)cc1)CS2
T/C [10]: 102 % of control
T/C [11]: 92 % of control
T/C [12]: 90 % of control

O=S(=O)(O)CCCCS(=O)(=O)O
T/C [14]: 99 % of control
T/C [15]: 108 % of control
T/C [16]: 110 % of control

CCOC(=O)c1ccc2c(c1)C(C)(SC)C(=O)N2 (centres undefined)
T/C [4]: 96 % of control
T/C [5]: 100 % of control
T/C [17]: 93 % of control

Clc1ccc2c(NCCC3CCCN4CCCCC34)ccnc2c1 (centres undefined)
T/C (dose: 12.5 mg/kg/injection, schedule: Q01DX005 (ip), vehicle: Klucel (hydroxypropylcellulose) (HPC)): 100 % of control
T/C (dose: 25.0 mg/kg/injection, schedule: Q01DX005 (ip), vehicle: Klucel (hydroxypropylcellulose) (HPC)): 103 % of control
T/C [13]: 100 % of control and 97 % of control

Cn1c(C(O)CCl)nc2c3ccccc3ccc21 (centres undefined)
T/C (dose: 25.0 mg/kg/injection, schedule: Q01DX009 (ip), vehicle: saline): 109 % of control
T/C [14]: 106 % of control
T/C [15]: 109 % of control and 92 % of control

NCCCCC(NC(=O)C(Cc1cnc[nH]1)NC(=O)CN)C(=O)O (stereo not drawn) (H-Gly-His-Lys-OH; configuration not given here)
T/C (dose: 50.0 mg/kg/injection, schedule: Q01DX005 (ip), vehicle: saline): 109 % of control
T/C (dose: 100.0 mg/kg/injection, schedule: Q01DX005 (ip), vehicle: saline): 104 % of control
T/C (dose: 200.0 mg/kg/injection, schedule: Q01DX005 (ip), vehicle: saline): 100 % of control

O=C1C(c2ccccc2)C2NC(C1c1ccccc1)C([N+](=O)[O-])C=C2[N+](=O)[O-] (centres undefined)
T/C (dose: 25.0 mg/kg/injection, schedule: Q01DX001 (ip), vehicle: Klucel (hydroxypropylcellulose) (HPC)): 94 % of control
T/C (dose: 50.0 mg/kg/injection, schedule: Q01DX001 (ip), vehicle: Klucel (hydroxypropylcellulose) (HPC)): 90 % of control

OCC1C=CCC1 (centres undefined)
T/C [9]: 99 % of control
T/C [3]: 101 % of control
T/C [4]: 90 % of control

CC12C(=O)C(c3ccccc3)(C(c3ccccc3)=C1c1ccccc1)C1OC(=O)OC12 (centres undefined)
T/C [5]: 95 % of control
T/C [17]: 91 % of control

CCN1CC[N+](CC)=C1C(=S)[S-]
T/C (dose: 100.0 mg/kg/injection, schedule: Q01DX001 (ip), vehicle: saline with Tween-80): 100 % of control
T/C (dose: 200.0 mg/kg/injection, schedule: Q01DX001 (ip), vehicle: saline with Tween-80): 104 % of control
T/C (dose: 400.0 mg/kg/injection, schedule: Q01DX001 (ip), vehicle: saline with Tween-80): 100 % of control

CC1=NC(C)(CO)CO1 (centres undefined)
T/C [14]: 111 % of control
T/C [15]: 111 % of control
T/C [16]: 108 % of control
T/C (dose: 400.0 mg/kg/injection, schedule: Q01DX009 (ip), vehicle: saline): 105 % of control

Nc1ccc(-c2cc3ccc(C4=NCCN4)cc3[nH]2)cc1
T/C (dose: 60.0 mg/kg/injection, schedule: Q01DX005 (ip), vehicle: Klucel (hydroxypropylcellulose) (HPC)): 117 % of control
